Legend:
[1] = molecular target: T1, PR-B progesterone receptor (Homo sapiens, UniProt P06401); test: Antagonism at the PR-B progesterone receptor (transactivation assay); assay type: cell-based; details: for IC50: read-out: Antagonistic Activity IC50
T1 sequence (P06401 1-933): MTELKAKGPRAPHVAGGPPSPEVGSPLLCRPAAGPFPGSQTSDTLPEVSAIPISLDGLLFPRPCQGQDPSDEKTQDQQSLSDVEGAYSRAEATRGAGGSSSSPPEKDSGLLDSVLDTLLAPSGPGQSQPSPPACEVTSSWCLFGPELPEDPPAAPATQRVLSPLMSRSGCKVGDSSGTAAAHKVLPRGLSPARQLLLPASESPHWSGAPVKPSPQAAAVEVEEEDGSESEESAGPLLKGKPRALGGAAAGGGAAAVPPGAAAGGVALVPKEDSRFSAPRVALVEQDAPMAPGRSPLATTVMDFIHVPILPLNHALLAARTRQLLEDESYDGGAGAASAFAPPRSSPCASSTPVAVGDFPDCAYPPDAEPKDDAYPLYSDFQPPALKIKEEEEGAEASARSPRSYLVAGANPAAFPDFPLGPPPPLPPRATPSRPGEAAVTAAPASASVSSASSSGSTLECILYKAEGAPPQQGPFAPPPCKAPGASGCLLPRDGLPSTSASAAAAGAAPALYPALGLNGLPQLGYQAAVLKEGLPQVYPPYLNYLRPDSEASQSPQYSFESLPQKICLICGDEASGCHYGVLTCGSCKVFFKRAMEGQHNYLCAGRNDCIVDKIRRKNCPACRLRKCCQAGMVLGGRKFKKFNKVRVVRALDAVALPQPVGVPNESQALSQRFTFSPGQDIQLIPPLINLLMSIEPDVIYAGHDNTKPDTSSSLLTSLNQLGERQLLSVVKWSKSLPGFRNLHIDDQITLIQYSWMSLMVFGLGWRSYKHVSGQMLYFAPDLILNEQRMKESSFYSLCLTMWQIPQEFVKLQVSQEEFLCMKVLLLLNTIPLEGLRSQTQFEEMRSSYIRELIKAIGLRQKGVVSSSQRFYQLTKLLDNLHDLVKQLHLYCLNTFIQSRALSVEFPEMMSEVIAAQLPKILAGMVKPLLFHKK
Description: Antagonism at the PR-B Progesterone Receptor
The transactivation assay is carried out as described in WO 02/054064.

[2] = molecular target: T1, PR-B progesterone receptor; test: Agonism on the PR-B progesterone receptor (transactivation assay); assay type: cell-based; details: for EC50: read-out: Agonistic Activity EC50
Description: Agonism on the PR-B Progesterone Receptor
The transactivation assay is carried out as described in Fuhrmann et al. (Fuhrmann U., Hess-Stump H., Cleve A., Neef G., Schwede W., Hoffmann J., Fritzemeier K.-H., Chwalisz K., Journal of Medicinal Chem, 43, 26, 2000, 5010-5016).

Structure (SMILES) | Antagonistic Activity Efficacy [1] | IC50 [1] | Agonistic Activity Efficacy [2] | EC50 [2]
C#CC(O)(CC(C)(C)c1ccccc1)C(=O)Nc1ccc2c(=O)onc(C)c2c1 (racemic) [Example 14, rac-6-[2-Ethynyl-2-hydroxy-4-methyl-4-phenylpentanoylamino]-4-methyl-2,3-benzoxazin-1-one] | 53% | 6 nM | 35% | 7 nM
Cc1ccc(C#CC(O)(CC(C)(C)c2ccccc2)C(=O)Nc2ccc3c(=O)onc(C)c3c2)cc1 (single isomer, unassigned; (-)) [Example 17b, (−)-6-[2-Hydroxy-4-methyl-2-[(4-methylphenyl)ethynyl]-4-phenylpentanoylamino]-4-methyl-2,3-benzoxazin-1-one] | 88% | 0.03 nM | 7% | 
Cc1noc(=O)c2ccc(NC(=O)C(O)(C#Cc3ccccc3C(F)(F)F)CC(C)(C)c3ccccc3)cc12 (racemic) [Example 24, rac-6-[2-Hydroxy-4-methyl-4-phenyl-2-[(2-trifluoromethylphenyl)ethynyl]-pentanoylamino]-4-methyl-2,3-benzoxazin-1-one] | 100% | 2 nM | 0% | 
COc1ccc(C#CC(O)(CC(C)(C)c2ccccc2)C(=O)Nc2ccc3c(=O)onc(C)c3c2)cc1 (racemic) [Example 18, rac-6-[2-Hydroxy-2-[(4-methoxyphenyl)ethynyl]-4-methyl-4-phenylpentanoylamino]-4-methyl-2,3-benzoxazin-1-one] | 89% | 0.2 nM | 8% | 
Cc1noc(=O)c2ccc(NC(=O)C(O)(C#Cc3ccccc3)CC3(c4ccccc4Cl)CCCC3)cc12 (racemic) [Example 5, rac-6-{2-[(2-Chlorophenyl)cyclopentyl]methyl-2-hydroxy-4-phenylbut-3-ynoylamino}-4-methyl-2,3-benzoxazin-1-one] | 86% | 0.2 nM | 10% | 0.2 nM
Cc1noc(=O)c2ccc(NC(=O)C(O)(C#Cc3ccccc3)CC(C)(C)c3ccccc3)cc12 (racemic) [Example 16, rac-6-[2-Hydroxy-4-methyl-4-phenyl-2-(phenylethynyl)pentanoylamino]-4-methyl-2,3-benzoxazin-1-one] | 82% | 0.7 nM | 13% | 0.5 nM
Cc1cc(C)c(C#CC(O)(CC(C)(C)c2ccccc2)C(=O)Nc2ccc3c(=O)onc(C)c3c2)cc1C (racemic) [Example 35, rac-6-[2-[(2,4,5-Trimethylphenyl)ethynyl]-2-hydroxy-4-methyl-4-phenylpentanoylamino]-4-methyl-2,3-benzoxazin-1-one] | 100% | 2 nM | 0% | 

From patent publication US20070010514A1, “Non-steroidal progesterone receptor modulators” (priority 2005, published 2007)
